“And” between values parts separate entries of the source, which are not always exact repeats. Equal values may be shown once. “Also recorded” adds a separate entry of the source.
Columns and labels:
[1] = tested on: SW620^Gal3+ cells; assay: Tumour cell adhesion to laminin; assay type: cell-based, human; settings: 10 μM; Galectin-3-expressing SW620^Gal3+ cells
Experimental: (§1) White wall 96-well plates were coated with laminin (20 μg/ml) in coating buffer (15 mM Na2CO3 17 mM NaHCO3 pH 9.6) overnight at room temperature. ZsGreen- and luciferase-transfected SW620Gal3+, SW620Gal-3, or ACA19+ cells (5×10^5 cells/ml) were pre-incubated without or with 10 μM of the compound of Formula I or the compound of Formula II for 10 minutes before added into laminin-coated plates for 30 min at 37° C. The plates were washed twice with PBS before lysed by PLB for 5 min on a shaker. Luciferase Assay Reagent was then added before luminescence was measured using Tecan Infinite F200 microplate reader.
(§2) Nanty-six well plates were coated with matrix protein laminin (20 μg/ml) in coating buffer overnight. ZsGreen- and luciferase-labelled SW620Gal3− and SW620Gal3+ cells (5×10^5 cells/ml) were mixed without or with 10 μM inhibitors for 15 minutes before introduced to the laminin-coated plates for 30 minutes at 37° C. The plates were washed twice with PBS and the bound cells were lysed by Passive lysis buffer. After addition of Luciferase Assay Reagent (LAR) for 10 minutes, the luminescence intensity in the wells was measured by a microplate reader.

[2] = tested on: SW620^Gal3− cells; assay: Tumour cell adhesion to laminin; assay type: cell-based, human; settings: 10 μM; Galectin-3-suppressed SW620^Gal3− cells
Experimental: as §1, §2

[3] = tested on: PANC1 cell; assay: Pancreatic cancer cell adhesion to basement matrix; assay type: cell-based, human; settings: for adhesion of control PANC1 cells: non-transfected cells (FIG. 16C, 16D); for PANC1 cell adhesion to matrix: different concentrations (FIG. 16A, 16B)
Experimental: (§3) Nanty-six well plates were coated with 50 μl Matrigel (1:30 diluted in PBS) at 37° C. for 1 hour. Cancer cells, pre-labelled with fluorescent die DiI at 37° C. for 20 minutes, were washed twice with PBS and resuspended into 3×10^4 cells/ml in serum-free medium. The matrix-coated 96-well plates were washed twice with PBS before introduction of […] cell suspension with different concentrations of the inhibitors or PBS/DMSO (control) for 1 hour at 37° C. The plates were washed twice with PBS before three randomly selected Field of Views (FOVs) were recorded by fluorescence microscope and number of adhesion cells were quantified by Image J.

[4] = tested on: MDA-MB-231 cell; assay: Triple-negative breast cancer cell adhesion to basement matrix; assay type: cell-based, human; settings: for adhesion of control (Con) MDA-MB-231 cells: non-transfected cells (FIG. 15C, 15D); for MDA-MB-231 cell adhesion to matrix: different concentrations (FIG. 15A, 15B)
Experimental: as §3

[5] = biological target: T1, Galectin-3 (Homo sapiens, UniProt P17931); assay: Binding affinity to Galectin-3 by Tryptophan Fluorescence Spectroscopy (TFS); settings: Galectin-3 10 μM, titration 0 to 224 μM
T1 construct: made in house; host or cells: E. coli
Experimental: (§4) The binding affinity of the compounds of Formula I and Formula II to Galectin-3 is assessed by Tryptophan Fluorescence Spectroscopy (TFS). The compounds of Formula I and Formula II bind to Galectin-3 with binding affinity (KD) at low μM;
as §4, with “FIG. 2A and FIG. 2B show analysis of the binding affinity of the compounds of Formula I and Formula II to Galectin-3. The binding” for “The binding”, “at low μM.” for “at low μM;”
The binding affinity of the inhibitors to Galectin-3 was determined by Intrinsic Tryptophan Fluorescence Spectroscopy (TFS) exactly as we described recently (Sindrewicz, P., et al., Intrinsic tryptophan fluorescence spectroscopy reliably determines galectin-ligand interactions. Sci Rep, 2019. 9(1): p. 11851, herein incorporated by reference). The Galectin-3 concentration used was 10 μM and the inhibitor titration concentrations were from 0 to 224 μM. DMSO/control buffer (PBS with 2 mM EDTA) titrations were performed and used for background subtraction.
The binding affinities of the compounds of Formula I and compounds of Formula II to Galectin-3 was determined by Tryptophan Fluorescence spectroscopy (TFS) [Sindrewicz, P., et al., Intrinsic tryptophan fluorescence spectroscopy reliably determines galectin-ligand interactions. Scientific Reports, 2019. 9(1): p. 11851, herein incorporated by reference] The Galectin-3 concentration used was 10 μM and the compounds of Formula I and compounds of Formula II titration concentrations were from 0 to 224 μM. DMSO/control buffer (PBS with 2 mM EDTA) titrations were performed and used for background subtraction.

[6] = biological target: T1, Galectin-3; assay: Galectin-3 binding to its ligand asialofetuin (ASF), ELISA; settings: Galectin-3 5 μg/ml, ASF 20 μg/ml, read-out: IC50, inhibition of Galectin-3 binding to ASF
Experimental: The compounds of Formula I and Formula II each inhibits Galectin-3 binding to ASF dose-dependently with IC50 1˜5 μM;
FIG. 1A and FIG. 1B show compounds of Formula I and Formula II inhibit Galectin-3 binding to its ligand asialofetuin (ASF). […] The compounds of Formula I and Formula II each inhibit Galectin-3 binding to ASF dose-dependently with IC50 1˜5 μM.
Ninety-six well ELISA plates were coated with 20 μg/ml ASF in coating buffer (1.6 g Na2CO3, 1.46 NaHCO3 in 1 L H20, pH 9.6) overnight at room temperature. The plates were washed twice with washing buffer (0.05% Tween-20 in PBS) before incubation with blocking buffer (1% BSA in PBS) for 30 min. Recombinant human Galectin-3 (5 ug/ml) was incubated without or with various concentrations of the compounds of Formula I and compounds of Formula II for 30 min before introduced to the plates for 2 hr at room temperature. The plates were washed twice with washing buffer before introduction of anti-Galectin-3 antibody (1 μg/ml) for 2 hr. The plates were washed three times with washing buffer before introduction of HRP-conjugated secondary antibody (1:5,000 dilutions) for 1 hr at room temperature. The plates were washed twice with washing buffer before developed by SigmaFAST. The reaction was stopped by addition of 4M sulphuric acid before the plates were read at 492 nm (ref 595 nm) by a microplate reader.

T1 sequence (P17931 whole entry): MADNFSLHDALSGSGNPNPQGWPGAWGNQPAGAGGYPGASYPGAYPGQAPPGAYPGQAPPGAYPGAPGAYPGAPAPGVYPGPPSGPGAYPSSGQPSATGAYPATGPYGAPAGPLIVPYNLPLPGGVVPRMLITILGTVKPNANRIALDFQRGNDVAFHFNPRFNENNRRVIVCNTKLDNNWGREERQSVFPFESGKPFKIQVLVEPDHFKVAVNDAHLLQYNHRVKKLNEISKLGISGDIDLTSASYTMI

SMILES | adhesion to matrix protein component laminin [1] | adhesion to matrix protein component laminin [2] | adhesion of control PANC1 cells [3] | PANC1 cell adhesion to matrix [3] | adhesion of control (Con) MDA-MB-231 cells [4] | MDA-MB-231 cell adhesion to matrix [4] | Kd [5] [µM] | binding affinity (Kd) to Galectin-3 [5] | IC50 [6]
C[C@H]1COc2c(N3CCN(C)CC3)c(F)cc3c(=O)c(C(=O)NNc4cccc(N)c4)cn1c23 [Formula II] | significantly inhibits | much reduced effect | significant reduction; also recorded: significant inhibition | dose-dependently inhibits | significant reduction; also recorded: significant inhibition | dose-dependent inhibition | 30 | low μM | ~5 µM and 1 to 5 µM
C[C@H]1COc2c(N3CCN(C)CC3)c(F)cc3c(=O)c(C(=O)NNc4ccc(N)cc4)cn1c23 [Formula I] | significantly inhibits | much reduced effect | significant reduction; also recorded: significant inhibition | dose-dependently inhibits | significant reduction; also recorded: significant inhibition | dose-dependent inhibition | 18 | low μM | ~1 µM and 1 to 5 µM
